Assay results published in patent publication US8674113B2, “Compounds” (Boehringer Ingelheim International GmbH, priority 2010, dated 2014).
pIC50: −log10 of the molar value. Read-outs that look alike come from different tables or passages of the source.

What was measured:
[1] = biological target: recombinant human mPGES-1 (Homo sapiens (Human), UniProt O14684); experiment: mPGES-1 enzyme assay (HTRF detection of PGE2); assay type: biochemical
Description: Microsomes from Rosetta E. coli bacteria expressing recombinant human mPGES-1 can be derived as described below:
Inoculate 5 ml LB with Ampicilin (50 μg/ml) and Chloramphenicol (34 μg/ml) with bacteria from freeze culture. Incubate 8 h at 37° C. with 200 rpm. Thereafter, inoculate 500-1000 ml LB containing Amp and Chloro with the 5 ml on culture and grow to OD640 of 0.8-1.0. Chill the culture to +4° C. before induction. Induce the culture with IPTG at a final concentration of 400 μM. Express the protein at room temp 18-23° C. with 200 rpm shaking over night.
The following steps can be performed on the following day: • 1. Spin down the cells in 250 ml centrifuge flasks for 15 min at 7000 rpm (Beckmann Coulte Avanti J-E centrifuge) • 2. Dissolve the pellet from 250 ml culture in 12.5 ml homogenization buffer • 3. (15 mM Tris-HCL pH8, 1 mM EDTA pH8, […], 2.5 mM GSH, 1 Tablet Protease inhibitor per 50 ml buffer) • 4. Disintegrate the cells by sonication, 5×10 seconds at 48% amplitude of a 750 W sonifier • 5. Add 2.5 ml MgCl2 (100 mM) and DNase 12.5 μl (0.8 mg/ml) and incubate on ice for 30 min • 6. Spin down the bacteria debris and save the supernatant, 7000 rpm for 15 min • 7. Isolate the protein containing membranes in the supernatant by ultracentrifugation 120000×g for 2 hour at 4° C. (Sorvall T880 rotor). • 8. Discard the supernatant and dissolve the pellet in 20 mM Potassium phosphate buffer pH7.4 (KH2PO4 and K2HPO4) buffer by sonication (5×10 s, 30% of a 50 W sonifier) and aliquot the enzyme and store aliquots at −80° C.
Before each experiment is performed an aliquot of the enzyme is thawed and it can then be dissolved in 0.1 M Potassium phosphate buffer pH7.4 (KH2PO4 and K2HPO4) buffer containing 2.5 mM GSH.
The aim of this assay is to determine the affinity of a test compound for the mPGES-1 enzyme.
47 μl of recombinant human mPGES-1 (˜0.5 μg protein/well) containing microsomal suspension in a buffer containing GSH, (2.5 mmol/L L-Glutathione reduced, dissolved in 0.1 mol/L Phosphat Buffer pH 7.4) is dispensed in a 384-well plate and thereafter 1 μl of the test compound(s) is/are added and incubated for 25 minutes at room temperature. The enzyme reaction is started by the addition of 2 ul PGH2 (final conc 2 μM) disolved in water-free Diglyme. After 60 seconds the reaction is terminated by addition of a stop solution containing FeCl2 (10 μL 0.074 mol/l FeCl2). The samples are diluted between 1:25 in PBS (Phosphate Buffered Saline). 10 μl of the diluted samples are transferred to 384-well low volume plate. In order to quantify the amount of PGE2 that has been formed, a homogenous time resolved fluorescent (HTRF) detecting of PGE2 has been performed using a commercially available kit from Cisbio according to the manufactures recommendation. This HTRF-based assay has been described in detail (see: Goedken et al., J Biomol Screen, 2008, 13(7), 619-625). Briefly, the diluted samples are mixed with 5 μl PGE2-d2 conjugate and 5 μl anti-PGE2 cryptate conjugate. After an incubation period of the plates over night, the fluorescence is measured by the use of an appropriate microplate reader.
The fluorescence of Europium cryptate (maxex=307 nm, maxem=620 nm) and d2-PGE2 (maxex=620 nm, maxem=665 nm) are measured.
The extent of the specific HTRF is measured as a ratio of the emission intensity at 665 nm vs. that at 620 nm at an excitation puts of 320 nm. The quantification plate contains also wells with different concentrations of PGE2 as calibration curve for the calculation of the PGE2 concentrations from the HTRF ratio values.
From all mPGES enzyme assay the background is subtracted and the IC50 is calculated over a nonlinear regression with conventional software.

mPGES-1 in A549 cells = mPGES-1 in A549 cells (Homo sapiens (Human), UniProt O14684); experiment: A549 cell-based assay (PGE2 formation, 50% human serum)
Description: Although the enzymatic assay is a high throughput assay the disadvantage is that it uses a recombinant protein which is not in its natural environment. Accordingly a cellular assay was established in which a cell line of human origin (A549) expressing the mPGES-1 protein was used. In addition in order to mimic the situation in humans in which compounds can be bound to plasma proteins 50% human serum is added in the assay.
A549 cells (ATCC: CCL-185) are grown to about 90% confluence in F-12K Nutrient Mixture (Kaighn's Mod. Gibco) containing 10% FBS in a humified incubator at 37° C. and 5% CO2. Cells were detached using Trypsin-EDTA. A549 cells were seeded in a 384-well collagene plate at a density of 7000 cells/well (50 μl) in F-12 medium containing 1% Penicillin-Streptomycin and 50% human serum. The cells were allowed to attach for 3-4 h. After that the cells were incubated for 20-24 h in F-12k medium supplemented with 50% human serum, 1% Penicillin-Streptomycin and containing IL-1β at a final concentration of 5 ng/ml as well as 10 nM arachidonic acid in the presence of a vehicle or a test compound. The total volume is 100 μl.
Concentrations of PGE2 in the cell free medium (10 μl) were measured using a commercially available HTRF kit from Cisbio (as described above). The PGE2 formation in the absence of test compound was taken as 100%.
IC50 values were derived from at 6-8 point titrations using conventional software.

[2] = recombinant human mPGES-1 microsomes, PGH2 2 μM, 60 seconds, read-out: mPGES-1 inhibitory effect IC50 in the enzyme assay
[3] = IL-1β 5 ng/ml, 10 nM arachidonic acid, 20-24 h, read-out: mPGES-1 inhibitory effect IC50 in the cell assay
[4] = Table C comparison of selected benzimidazoles, read-out: Enzym IC50
[5] = Table C comparison of selected benzimidazoles, read-out: Cell IC50

Sequence of mPGES-1 in A549 cells (O14684 whole entry): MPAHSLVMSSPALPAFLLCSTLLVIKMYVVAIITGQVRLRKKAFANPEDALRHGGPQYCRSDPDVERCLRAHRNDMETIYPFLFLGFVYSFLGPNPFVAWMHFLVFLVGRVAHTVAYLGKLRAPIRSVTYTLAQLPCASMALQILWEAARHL
Sequence of recombinant human mPGES-1 (O14684 whole entry): as above

| pIC50 [1, 2] | pIC50 (mPGES-1 in A549 cells; [3]) | pIC50 [1, 4] | pIC50 (mPGES-1 in A549 cells; [5]) | SMILES |
| --- | --- | --- | --- | --- |
| 8.70 | 9.00 | – | – | Cn1c(Nc2c(Cl)ccc(CNC(=O)C(C)(C)C)c2Cl)nc2cc(C(=O)Nc3ccc(F)c(Cl)c3)c(N3CCC(F)CC3)cc21 [Example 1, N-(4-Fluoro-3-chloro-phenyl)-2-{2,6-dichloro-3-[(2,2-dimethyl-propionylamino)-methyl]-phenylamino}-6-(4-fluoro-piperidinyl)-1-methyl-1H-benzimidazole-5-carboxylic acid amide] |
| 8.70 | > 9.00 | 8.70 | > 9.00 | CN(CC(F)F)c1cc2c(cc1C(=O)Nc1ccc(F)c(Cl)c1)nc(Nc1c(Cl)ccc(CNC(=O)C(C)(C)C)c1Cl)n2C [Example 2, N-(4-Fluoro-3-chloro-phenyl)-2-{2,6-dichloro-3-[(2,2-dimethyl-propionylamino)-methyl]-phenylamino}-6-[N-methyl-N-(2,2-difluoroethyl)-amino]-1-methyl-1H-benzimidazole-5-carboxylic acid amide] |
| 8.70 | 7.41 | – | – | CC(C)(C)C(=O)NCc1ccc(F)c(Nc2nc3cc(C(=O)N[C@H]4CC[C@H](C(F)(F)F)CC4)c(N4CCC(F)CC4)cc3[nH]2)c1F [Example 5, N-(trans-4-Trifluoromethyl-cyclohexyl)-2-{2,6-difluoro-3[(2,2-dimethyl-propionylamino)-methyl]-phenylamino}-6-[4-fluoro-piperidinyl]-1H-benzimidazole-5-carboxylic acid amide] |
| 8.70 | 9.00 | – | – | Cn1c(Nc2c(Cl)ccc(CNC(=O)C(C)(C)C)c2Cl)nc2cc(C(=O)NCC(F)(F)F)c(N3CCC(F)CC3)cc21 [Example 10] |
| 8.52 | 8.52 | – | – | CC(C)(C)C(=O)NCc1ccc(Cl)c(Nc2nc3cc(C(=O)NCC(F)(F)F)c(N4CCC(F)CC4)cc3[nH]2)c1Cl [Example 11] |
| 8.52 | 8.52 | – | – | Cn1c(Nc2c(F)ccc(CNC(=O)C(C)(C)C)c2F)nc2cc(C(=O)N[C@H]3CC[C@H](C(F)(F)F)CC3)c(N3CCC(F)CC3)cc21 [Example 12] |
| 9.00 | > 9.00 | – | – | Cn1c(Nc2c(Cl)ccc(CNC(=O)C(C)(C)C)c2Cl)nc2cc(C(=O)NC3CC(F)(F)C3)c(N3CCC(C(F)(F)F)CC3)cc21 [Example 14] |
| 8.40 | 7.64 | – | – | Cn1c(Nc2c(Cl)ccc(CNC(=O)C(C)(C)C)c2Cl)nc2cc(C(=O)Nc3ccc(F)c(Cl)c3)c(NC3CC(F)(F)C3)cc21 [Example 15] |
| 8.52 | 8.22 | 8.52 | 8.22 | Cn1c(Nc2c(Cl)ccc(CNC(=O)C(C)(C)C)c2Cl)nc2cc(C(=O)Nc3ccc(F)c(Cl)c3)c(NCC(F)F)cc21 [Example 17] |
| 8.52 | 8.40 | – | – | Cn1c(Nc2c(Cl)ccc(CNC(=O)C(C)(C)C)c2Cl)nc2cc(C(=O)N[C@H]3CC[C@H](C(F)(F)F)CC3)c(N3CC[C@H](F)C3)cc21 [Example 18] |
| 8.52 | 9.00 | – | – | Cn1c(Nc2c(Cl)ccc(CNC(=O)C(C)(C)C)c2Cl)nc2cc(C(=O)N[C@H]3CC[C@H](C(F)(F)F)CC3)c(N3CC[C@@H](F)C3)cc21 [Example 19] |
| 8.40 | 8.60 | – | – | Cn1c(Nc2c(Cl)ccc(CNC(=O)C(C)(C)C)c2Cl)nc2cc(C(=O)N[C@H]3CC[C@H](C(F)(F)F)CC3)c(N3CC(F)(F)C3)cc21 [Example 21] |
| 8.30 | 8.82 | – | – | Cn1c(Nc2c(Cl)ccc(CNC(=O)C(C)(C)C)c2Cl)nc2cc(C(=O)N[C@H]3CC[C@H](C(F)(F)F)CC3)c(N3CC4CC4C3)cc21 (stereo partly shown) [Example 22] |
| 8.40 | 9.00 | – | – | CN(c1cc2c(cc1C(=O)NCC(F)(F)F)nc(Nc1c(Cl)ccc(CNC(=O)C(C)(C)C)c1Cl)n2C)C1CC1 [Example 23] |
| 8.30 | 7.36 | – | – | Cn1c(Nc2c(Cl)ccc(CNC(=O)C(C)(C)C)c2Cl)nc2cc(C(=O)N[C@H]3CC[C@H](C(F)(F)F)CC3)c(N3CCn4cncc4C3)cc21 [Example 24] |
| 8.40 | 7.92 | – | – | CN1CCN(c2cc3c(cc2C(=O)N[C@H]2CC[C@H](C(F)(F)F)CC2)nc(Nc2c(Cl)ccc(CNC(=O)C(C)(C)C)c2Cl)n3C)CC1=O [Example 25] |
| 8.70 | 8.70 | – | – | CN(c1cc2c(cc1C(=O)NCC(F)(F)F)nc(Nc1c(Cl)ccc(CNC(=O)C(C)(C)C)c1Cl)n2C)C1CCCC1 [Example 27] |
| 8.70 | 8.82 | – | – | Cn1c(Nc2c(Cl)ccc(CNC(=O)C(C)(C)C)c2Cl)nc2cc(C(=O)NCC(F)(F)F)c(N3CCC(C(F)(F)F)CC3)cc21 [Example 28] |
| 8.70 | – | – | – | Cn1c(Nc2c(Cl)ccc(CNC(=O)C(C)(C)C)c2Cl)nc2cc(C(=O)N[C@H]3CC[C@H](C(F)(F)F)CC3)c(N3CC4CCC3C4)cc21 (stereo partly shown) [Example 127] |
| 8.52 | – | – | – | CC(C)(O)Cn1c(Nc2c(Cl)ccc(CNC(=O)C(C)(C)C)c2Cl)nc2cc(C(=O)N[C@H]3CC[C@H](C(F)(F)F)CC3)c(N3CCOCC3)cc21 [Example 168] |

| SMILES | pIC50 [1, 2] | pIC50 (mPGES-1 in A549 cells; [3]) | pIC50 [1, 4] | pIC50 (mPGES-1 in A549 cells; [5]) |
| --- | --- | --- | --- | --- |
| Cn1c(Nc2c(Cl)ccc(CNC(=O)C(C)(C)C)c2Cl)nc2cc(C(=O)N[C@H]3CC[C@H](C(F)(F)F)CC3)c(NC3CC(F)(F)C3)cc21 [Example 4, N-(trans-4-Trifluoromethyl-cyclohexyl)-2-{2,6-dichloro-3-[(2,2-dimethyl-propionylamino)-methyl]-phenylamino}-6-[3,3-difluoro-cyclobutylamino]-1-methyl-1H-benzimidazole-5-carboxylic acid amide] | 8.30 | 7.70 | – | – |
| Cn1c(Nc2c(Cl)ccc(CNC(=O)C(C)(C)C)c2Cl)nc2cc(C(=O)NCC(F)(F)F)c(N3CCC(F)(F)C3)cc21 [Example 26, N-(2,2,2-Trifluoroethyl)-2-{2,6-dichloro-3-[(2,2-dimethyl-propionylamino)-methyl]-phenylamino}-6-[3,3-difluoro-pyrrolidinyl]-1-methyl-1H-benzimidazole-5-carboxylic acid amide] | 8.52 | 8.44 | – | – |
